What all share (assay): ≥ marks a high value that may be exact or a test limit, other limits are often not marked, values filed in µg/mL are converted to µM
In experiment [1] the test system is Candida albicans ATCC 2002.
The next experiment deals with Bacillus subtilis.
Experiment [2] deals with Staphylococcus aureus ATCC 2592.
Experiment [3] deals with Escherichia coli ATCC 25922.
For experiment [4], the system named is Staphylococcus aureus USA 100.
Experiment [5] has as its system Staphylococcus aureus NCTC 8325-4.
Experiment [6] concerns Pseudomonas fluorescens NCIMB 9046.
Experiment [7] has as its system Cronobacter muytjensii ATCC 51329.
The subject of experiment [8] is Staphylococcus aureus SA113.
Experiment [9] relates to Escherichia coli NCIMB 11843.
Experiment [10] has as its system Staphylococcus aureus RN4220.
Experiment [11] relates to Salmonella enterica subsp. enterica serovar Typhimurium LT2.
The subject of experiment [12] is Cronobacter sakazakii DSM 4485.
The subject of experiment [13] is Cronobacter sakazakii ATCC BAA-894.
The subject of experiment [14] is Staphylococcus aureus RF122.
The test system of experiment [15] is Cronobacter sakazakii DPC 6440.
Experiment [16] concerns Staphylococcus aureus Newman.
In experiment [17] the test system is Klebsiella pneumoniae NCIMB 13218.
Experiment [18] deals with Candida albicans ATCC 90028.
The subject of experiment [19] is Staphylococcus aureus USA 300.
Experiment [20] concerns Pseudomonas aeruginosa ATCC 9027.
For experiment [21], the system named is Pseudomonas aeruginosa ATCC 27853.

From DBAASP come the findings set out here.

In brackets after ≈: the same amount, converted by molar mass. Some results are limits rather than exact numbers.

On to `CC[C@H](C)[C@H](NC(=O)[C@H](C)NC(=O)[C@H](CS)NC(=O)[C@@H](NC(=O)[C@@H](NC(=O)[C@@H](NC(=O)CNC(=O)[C@@H](NC(=O)[C@@H](NC(=O)[C@@H](NC(=O)[C@H](C)NC(=O)[C@H](Cc1ccccc1)NC(=O)[C@H](CC(C)C)NC(=O)[C@H](CCCN=C(N)N)NC(=O)[C@H](CCCN=C(N)N)NC(=O)[C@H](CC(C)C)NC(=O)CNC(=O)CNC(=O)[C@@H](NC(=O)[C@@H](N)Cc1ccccc1)[C@@H](C)CC)[C@@H](C)O)C(C)C)C(C)C)[C@@H](C)O)C(C)C)C(C)C)C(=O)N[C@@H](CC(N)=O)C(=O)N[C@@H](CCCCN)C(=O)N[C@@H](CC(C)C)C(=O)NCC(=O)NCC(=O)NCC(=O)O` [FIGGLRRLFATVVGTVVCAINKLGGG], for which the MIC in experiment [1] was 4.77 µM (≈ 12.5 µg/mL); in the experiment on Bacillus subtilis, ≥ 38.2 µM; in [2] it was 4.77 µM (≈ 12.5 µg/mL); in experiment [3] it was 4.77 µM (≈ 12.5 µg/mL).

In the case of `NC(=O)[C@H](CCCN=C(N)N)NC(=O)[C@H](Cc1cnc[nH]1)NC(=O)[C@H](CCCN=C(N)N)NC(=O)[C@@H](N)Cc1cnc[nH]1` [HRHR], in experiment [4], the minimum inhibitory concentration (MIC) was ≥ 100 µM.

Take `CC[C@H](C)[C@H](N)C(=O)N[C@@H](CCCCN)C(=O)N[C@@H](C)C(=O)N[C@@H](CCC(N)=O)C(=O)NCC(=O)N[C@@H](CC(C)C)C(=O)N1CCC[C@H]1C(=O)N[C@@H](CCC(N)=O)C(=O)N[C@@H](CCC(=O)O)C(=O)O` [IKAQGLPQE]: the MIC in experiment [5] was ≥ 1250 µM; in experiment [6], ≥ 1250 µM; in experiment [7], ≥ 2500 µM; in experiment [8], ≥ 1250 µM; in experiment [9] it was ≥ 1250 µM; in experiment [10], ≥ 1250 µM. The MIC was ≥ 1250 µM in experiment [11]; ≥ 2500 µM in experiment [12]; ≥ 2500 µM in experiment [13]; ≥ 1250 µM in experiment [14]; ≥ 625 µM in experiment [15]; ≥ 1250 µM in experiment [16]. For the same compound, in [17], the MIC was ≥ 1250 µM.

Turning to `CC[C@H](C)[C@H](N)C(=O)N[C@@H](CCCCN)C(=O)N[C@@H](Cc1cnc[nH]1)C(=O)N[C@@H](CCCN=C(N)N)C(=O)NCC(=O)N[C@@H](CC(C)C)C(=O)N1CCC[C@H]1C(=O)N[C@@H](CCC(N)=O)C(=O)N[C@@H](CCC(=O)O)C(=O)O` [IKHRGLPQE], the MIC was ≥ 1250 µM in [5]; ≥ 2500 µM in experiment [6]; ≥ 1250 µM in experiment [7]; ≥ 1250 µM in experiment [8]; ≥ 1250 µM in experiment [9]; ≥ 1250 µM in experiment [10]. The MIC in experiment [11] is ≥ 1250 µM; in [12] it was ≥ 2500 µM; in experiment [13], ≥ 2500 µM; in experiment [14], ≥ 625 µM; in experiment [15] it was ≥ 312 µM; in experiment [16] it was ≥ 1250 µM. In experiment [17], the MIC is ≥ 1250 µM.

Turning to `CC[C@H](C)[C@H](N)C(=O)N[C@@H](CCCN=C(N)N)C(=O)N[C@@H](Cc1cnc[nH]1)C(=O)N[C@@H](CCC(N)=O)C(=O)NCC(=O)N[C@@H](CC(C)C)C(=O)N1CCC[C@H]1C(=O)N[C@@H](CCC(N)=O)C(=O)N[C@@H](CCC(=O)O)C(=O)O` [IRHQGLPQE], the minimal inhibitory concentration (MIC) in experiment [5] was ≥ 2500 µM; in experiment [6], ≥ 1250 µM; in experiment [7], ≥ 1250 µM; in [8], ≥ 2500 µM; in [9], ≥ 1250 µM; in [10], ≥ 2500 µM. Moreover, the MIC in experiment [11] is ≥ 2500 µM; in experiment [12] it was ≥ 1250 µM; in experiment [13] it was ≥ 625 µM; in [14], ≥ 625 µM; in experiment [15] it was ≥ 1250 µM; in [16], ≥ 2500 µM. Further, the minimal inhibitory concentration (MIC) in experiment [17] was ≥ 2500 µM.

Take `NCCCC[C@H](NC(=O)[C@H](CCCN=C(N)N)NC(=O)[C@@H](N)CCCCN)C(=O)N[C@@H](CCCN=C(N)N)C(N)=O` [KRKR]: the minimum inhibitory concentration (MIC) in experiment [4] was ≥ 100 µM.

With `NCCCC[C@H](NC(=O)[C@H](Cc1c[nH]c2ccccc12)NC(=O)[C@H](CCCCN)NC(=O)[C@H](Cc1c[nH]c2ccccc12)NC(=O)[C@H](Cc1c[nH]c2ccccc12)NC(=O)[C@H](CCCCN)NC(=O)[C@H](Cc1c[nH]c2ccccc12)NC(=O)[C@@H](N)CCCCN)C(N)=O` [KWKWWKWK], the minimal inhibitory concentration (MIC) in experiment [18] was ≥ 100 µM; in experiment [19], 6.25 µM (≈ 7.97 µg/mL); in [20], 50 µM (≈ 63.7 µg/mL); in experiment [4] it was 12.5 µM (≈ 15.9 µg/mL).

On to `CC(C)C[C@H](NC(=O)CNC(=O)[C@H](Cc1ccccc1)NC(=O)[C@H](CC(C)C)NC(=O)[C@H](CCCN=C(N)N)NC(=O)[C@H](CC(C)C)NC(=O)[C@H](Cc1c[nH]c2ccccc12)NC(=O)CNC(=O)CNC(=O)[C@H](CO)NC(=O)[C@H](CCCCN)NC(=O)[C@H](CC(C)C)NC(=O)[C@H](C)NC(=O)[C@@H](N)CC(C)C)C(=O)N[C@@H](CCCCN)C(=O)N[C@@H](CC(=O)O)C(=O)N[C@@H](CCCCN)C(=O)N[C@@H](CCCCN)C(=O)N[C@@H](Cc1cnc[nH]1)C(N)=O` [LALKSGGWLRLFGLKDKKH], for which the minimal inhibitory concentration (MIC) is ≥ 35 µM in experiment [1], 9 µM (≈ 19.5 µg/mL) in [20], 17 µM (≈ 36.8 µg/mL) in experiment [2] and 35 µM (≈ 75.8 µg/mL) in experiment [3].

Turning to `NC(=O)[C@H](Cc1c[nH]c2ccccc12)NC(=O)[C@H](Cc1c[nH]c2ccccc12)NC(=O)[C@H](Cc1c[nH]c2ccccc12)NC(=O)[C@H](CCCN=C(N)N)NC(=O)[C@H](CCCN=C(N)N)NC(=O)[C@@H](N)CCCN=C(N)N` [RRRWWW], the MIC is ≥ 100 µM in experiment [18], 25 µM (≈ 26.1 µg/mL) in experiment [19], 50 µM (≈ 52.2 µg/mL) in experiment [20] and 25 µM (≈ 26.1 µg/mL) in experiment [4].

For `CC(C)C[C@H](NC(=O)[C@H](CC(C)C)NC(=O)[C@H](CC(N)=O)NC(=O)[C@H](C)NC(=O)[C@H](CC(N)=O)NC(=O)[C@H](CC(C)C)NC(=O)[C@@H](N)C(C)C)C(=O)N[C@@H](CCCN=C(N)N)C(=O)O` [VLNANLLR], the MIC is ≥ 1250 µM in experiment [5]; ≥ 1250 µM in experiment [6]; ≥ 2500 µM in [7]; ≥ 1250 µM in experiment [8]; ≥ 2500 µM in experiment [9]; ≥ 1250 µM in experiment [10]. In addition, the MIC is ≥ 2500 µM in [11]; ≥ 1250 µM in experiment [12]; ≥ 2500 µM in experiment [13]; ≥ 1250 µM in experiment [14]; 32 µM (≈ 29.2 µg/mL) in experiment [21]; ≥ 1250 µM in [15]. The MIC in experiment [16] was ≥ 1250 µM; in [17], ≥ 2500 µM.

For the compound `CC(C)C[C@H](NC(=O)[C@H](CC(C)C)NC(=O)[C@H](CC(N)=O)NC(=O)[C@H](CCC(=O)O)NC(=O)[C@H](CC(N)=O)NC(=O)[C@H](CC(C)C)NC(=O)[C@@H](N)C(C)C)C(=O)N[C@@H](Cc1cnc[nH]1)C(=O)O` [VLNENLLH], the minimal inhibitory concentration (MIC) is ≥ 1250 µM in experiment [5]; ≥ 1250 µM in experiment [6]; ≥ 1250 µM in [7]; ≥ 1250 µM in experiment [8]; ≥ 2500 µM in [9]; ≥ 1250 µM in experiment [10]. For the same compound, the MIC is ≥ 2500 µM in experiment [11]; ≥ 1250 µM in experiment [12]; ≥ 1250 µM in experiment [13]; ≥ 1250 µM in experiment [14]; 32 µM (≈ 30.4 µg/mL) in experiment [21]; ≥ 1250 µM in experiment [15]. Also, the MIC in [16] and in [17] was ≥ 1250 µM each time.
